Key:
[1] = system: DIO mice; assay: Long-term administration of PB-119 with PB-721 or PB-722, weight loss and lipids in DIO mice (Example 18); type: in vivo, C57BL/6 mice; conditions: for decrease of liver triglyceride content compared with model control group / decrease of serum total cholesterol content / serum triglyceride level: Day21; for decrease of cumulative food intake compared with model control group / body weight decrease compared with that before the administration: 21 days
Procedure: Each group was administered subcutaneously, once every two days, and the experiment lasted for 21 days with 11 administrations. During the experimental period, the body weight and food intake of the mice were measured every day. The blood sugar level was measured at Day1 and Day21, and the serum triglyceride serum, total cholesterol, liver triglyceride and other indexes were measured at Day21.

[2] = system: DIO mice; assay: Combination of PB-119 and PB-722, weight loss in DIO mice, 21 days (Example 20); type: in vivo, C57BL/6 mice; conditions: 10 nmol/kg once every two days
Procedure: Male C57BL/6 mice (from the same source as described above) were fed with high-fat diet (45% kcal) for 22 weeks. […] 36 DIO mice were divided into 6 groups based on their body weight and random blood sugar level, with 6 mice per group. […] Except that administration was carried out twice a day in group 6, administration was carried out once every two days in other groups. The experiment was conducted for a total of 21 days for a continuous administration. The body weight and food intake of the mice were measured on the day of the administration, and random blood sugar level and fasting blood sugar level were measured on the second day after the last administration.
After 21 days of administration, an oral glucose tolerance experiment was performed. Mice were orally given 2.5 g/kg glucose solution, and random glucose level was measured at 0 min, 15 min, 30 min, 60 min and 120 min after sugar feeding.

[3] = system: DIO mice; assay: Long-term administration of PB-718, PB-119 and PB-708+PB-120, weight loss in DIO mice (Example 17); type: in vivo, C57BL/6 mice; conditions: 14 days
Procedure: The Victoza group was dosed once a day and the remaining groups were dosed once every 2 days. The continuous administration experiment was conducted for a total of 14 days. During the experimental period, the body weight and food intake of the mice were measured every day. Random blood sugar level was measured before the start of the experiment and after the complement of the experiment.

[4] = system: DIO mice; assay: Long-term administration of PB-716 series conjugates, weight loss in DIO mice (Example 16); type: in vivo, C57BL/6 mice
Procedure: […] The continuous administration experiments was conducted for a total of 14 days. During the experimental period, the body weight and food intake of the mice were measured every day. Random blood sugar level was measured before the start of the experiment and after the complement of the experiment.

[5] = system: nonalcoholic steatohepatitis (NASH) model mice; assay: Combination of PB-119 and PB-722 in nonalcoholic steatohepatitis (NASH) mouse model (Example 21); type: in vivo, C57/BL6J mice; conditions: 10 mg/kg orally once a day, 21 days
Description: 30 C57/BL6J mice (purchased from Lingchang Biotechnology Co. Ltd., Shanghai, China) were used in this experiment. Twenty four of them were intraperitoneally injected with streptozotocin (STZ) one week after they were born and fed with high-fat diet (purchased from Research Diets, Inc) for five weeks to successfully create a nonalcoholic steatohepatitis (NASH) model. The other 6 were used as normal control and fed with normal diet. The administration started at the sixth week. […] The positive control group was orally administered once a day and the other groups were administered subcutaneously once every two days for 21 consecutive days. During the administration period, body weight was measured every day and the food intake was measured every two days. After the last day of administration, the animals were fasted overnight, and then weighed and euthanized. Serum and liver tissues were taken and the liver weights were measured. Serum glucose and insulin levels were detected. Liver tissue was fixed with formaldehyde solution, and tissue sections were made and stained with HE, oil red and Sirius red. The sections were examined and scored to determine the NASH index.

## mPEG-23 KD-ppMAL-PB-105 [PB-119]
[1]; 10 nmol/kg alone
  decrease of liver triglyceride content compared with model control group: 12.67%
  decrease of serum total cholesterol content: 39.35%
  serum triglyceride level: did not significantly improve
[1]; 10 nmol/kg alone, s.c. once every two days
  decrease of cumulative food intake compared with model control group: 25.14%
[1]; 10 nmol/kg s.c. once every two days
  body weight decrease compared with that before the administration: 14.37%
[2]
  body weight decrease compared with that before the administration: 16.6%
  decrease in cumulative food intake compared with control group: 14.4%
  fasting blood sugar level decrease compared with that before administration: 17.9%
[3]; 210 μg/kg once every 2 days
  body weight decrease compared with that before the administration: 13.33%
  decrease of cumulative food intake compared with control group: 39.95%
  decrease of random blood sugar level: 27.27%

## mPEG-23 KD-ppMAL--PB-740 (HSQGTFTSDYSKYLDSRRAQDFVQWLMNTC; mPEG-23KD-ppMAL conjugate) [PB-721]
[1]; 60 nmol/kg alone
  decrease of liver triglyceride content compared with model control group: 73.29%
  decrease of serum total cholesterol content: 60.86%
  serum triglyceride level: did not significantly improve
[1]; 60 nmol/kg alone, s.c. once every two days
  decrease of cumulative food intake compared with model control group: 2.36%
[1]; alone, 60 nmol/L as printed, s.c. once every two days
  body weight decrease compared with that before the administration: 21.65%

## CCCCCCCCCCCCCCCC(=O)N[C@@H](CCC(=O)NCCCC[C@H](NC(=O)[C@H](C)NC(=O)[C@H](C)NC(=O)[C@H](CCC(N)=O)NC(=O)CNC(=O)[C@H](CCC(=O)O)NC(=O)[C@H](CC(C)C)NC(=O)[C@H](Cc1ccc(O)cc1)NC(=O)[C@H](CO)NC(=O)[C@H](CO)NC(=O)[C@@H](NC(=O)[C@H](CC(=O)O)NC(=O)[C@H](CO)NC(=O)[C@@H](NC(=O)[C@H](Cc1ccccc1)NC(=O)[C@@H](NC(=O)CNC(=O)[C@H](CCC(=O)O)NC(=O)[C@H](C)NC(=O)[C@@H](N)Cc1cnc[nH]1)[C@@H](C)O)[C@@H](C)O)C(C)C)C(=O)N[C@@H](CCC(=O)O)C(=O)N[C@@H](Cc1ccccc1)C(=O)N[C@H](C(=O)N[C@@H](C)C(=O)N[C@@H](Cc1c[nH]c2ccccc12)C(=O)N[C@@H](CC(C)C)C(=O)N[C@H](C(=O)N[C@@H](CCCNC(=N)N)C(=O)NCC(=O)N[C@@H](CCCNC(=N)N)C(=O)NCC(=O)O)C(C)C)[C@@H](C)CC)C(=O)O [Victoza, reference compound]
[4]; 200 μg/kg once a day, 14 days
  body weight decrease compared with that before the administration: 15.83%
[4]; 200 μg/kg once a day, end of 14-day continuous administration
  decrease of cumulative food intake relative to model control group: 50.82%
[4]; Victoza 200 μg/kg, single administration
  body weight compared with control group by 96 hours after first administration: no significant difference
[3]; 200 μg/kg once a day
  body weight decrease compared with that before the administration: 15.92%

## CCCc1nc2c(C)cc(-c3nc4ccccc4n3C)cc2n1Cc1ccc(-c2ccccc2C(=O)O)cc1 [telmisartan]
[5]
  blood sugar level: no effect

Reference: patent publication US10894076B2 (PEGBIO CO., LTD., priority 2015, dated 2021)
